From article PMC7026418, “The kinase polypharmacology landscape of clinical PARP inhibitors” (Scientific Reports, 2020)
Like-named read-outs stand apart in the source and are kept apart here. Blank lines part the entries; values can stand above or below the compound they belong to.

Experiments:
Assay in all cases: biochemical
Set-up in all cases: DiscoveRx KINOMEscan active site-directed competition binding; percent of control kinase bound to immobilised ligand
[1] = target: SRMS (Homo sapiens, UniProt Q9H3Y6)
[2] = target: T1, MAP4K2 (Homo sapiens, UniProt Q12851)
T1 sequence (Q12851 1-820): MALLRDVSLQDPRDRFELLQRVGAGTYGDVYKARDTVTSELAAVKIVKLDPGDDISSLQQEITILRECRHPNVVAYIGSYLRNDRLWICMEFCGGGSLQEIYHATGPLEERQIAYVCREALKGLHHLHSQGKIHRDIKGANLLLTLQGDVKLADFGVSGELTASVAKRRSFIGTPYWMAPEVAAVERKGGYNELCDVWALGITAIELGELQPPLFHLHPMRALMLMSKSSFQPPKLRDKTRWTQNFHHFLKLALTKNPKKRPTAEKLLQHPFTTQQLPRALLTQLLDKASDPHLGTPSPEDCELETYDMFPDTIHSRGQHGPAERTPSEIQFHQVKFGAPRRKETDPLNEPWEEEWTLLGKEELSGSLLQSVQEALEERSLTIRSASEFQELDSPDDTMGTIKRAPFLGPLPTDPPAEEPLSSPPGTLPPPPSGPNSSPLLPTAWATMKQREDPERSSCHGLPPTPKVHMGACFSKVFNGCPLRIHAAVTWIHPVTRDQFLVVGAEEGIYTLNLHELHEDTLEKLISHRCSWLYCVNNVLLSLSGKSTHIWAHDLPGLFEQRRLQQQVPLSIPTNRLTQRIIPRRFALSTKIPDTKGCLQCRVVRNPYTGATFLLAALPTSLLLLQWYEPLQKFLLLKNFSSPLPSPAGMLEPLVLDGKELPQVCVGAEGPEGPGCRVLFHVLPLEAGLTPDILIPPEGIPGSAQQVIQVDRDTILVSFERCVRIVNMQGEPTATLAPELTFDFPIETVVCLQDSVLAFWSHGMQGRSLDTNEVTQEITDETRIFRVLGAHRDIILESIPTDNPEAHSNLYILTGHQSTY

[3] = target: T2, MLK3 (Homo sapiens, UniProt Q16584)
T2 construct: gene MAP3K11

[4] = target: T3, FLT3(ITD,F691L) (Homo sapiens, UniProt P36888, F691L/ITD)
T3 sequence (P36888 564-993 F691L): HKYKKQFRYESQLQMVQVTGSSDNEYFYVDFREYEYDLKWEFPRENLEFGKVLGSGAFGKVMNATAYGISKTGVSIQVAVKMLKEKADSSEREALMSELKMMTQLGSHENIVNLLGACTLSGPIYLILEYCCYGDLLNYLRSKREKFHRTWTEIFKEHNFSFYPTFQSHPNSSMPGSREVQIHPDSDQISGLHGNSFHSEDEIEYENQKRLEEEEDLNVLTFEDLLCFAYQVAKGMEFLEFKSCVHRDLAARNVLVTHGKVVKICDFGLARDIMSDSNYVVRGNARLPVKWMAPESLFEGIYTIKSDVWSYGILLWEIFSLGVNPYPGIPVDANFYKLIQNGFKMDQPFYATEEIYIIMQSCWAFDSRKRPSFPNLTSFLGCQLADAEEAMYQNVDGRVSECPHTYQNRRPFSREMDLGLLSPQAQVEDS

[5] = target: T4, p38-alpha (Homo sapiens, UniProt Q16539)
T4 construct: gene MAPK14

[6] = target: T5, MST1 (Homo sapiens, UniProt Q13043)
T5 construct: gene STK4
T5 sequence (Q13043 1-487): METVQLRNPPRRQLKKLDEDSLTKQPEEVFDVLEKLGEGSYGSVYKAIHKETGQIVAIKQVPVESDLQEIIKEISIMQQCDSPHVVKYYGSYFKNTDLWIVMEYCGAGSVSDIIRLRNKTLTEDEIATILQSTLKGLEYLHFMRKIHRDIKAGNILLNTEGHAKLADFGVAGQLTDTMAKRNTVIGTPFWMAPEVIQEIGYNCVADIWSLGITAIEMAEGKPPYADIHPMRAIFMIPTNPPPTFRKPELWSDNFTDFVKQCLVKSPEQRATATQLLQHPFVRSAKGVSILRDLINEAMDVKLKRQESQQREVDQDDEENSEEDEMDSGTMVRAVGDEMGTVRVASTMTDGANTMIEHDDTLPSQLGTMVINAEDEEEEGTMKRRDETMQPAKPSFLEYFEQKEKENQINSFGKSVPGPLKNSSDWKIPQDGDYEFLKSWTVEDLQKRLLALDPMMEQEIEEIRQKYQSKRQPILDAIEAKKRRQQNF

[7] = target: CSF1R-autoinhibited (Homo sapiens, UniProt P07333)
[8] = target: T6, ACVR1 (Homo sapiens, UniProt Q04771)
T6 sequence (Q04771 1-509): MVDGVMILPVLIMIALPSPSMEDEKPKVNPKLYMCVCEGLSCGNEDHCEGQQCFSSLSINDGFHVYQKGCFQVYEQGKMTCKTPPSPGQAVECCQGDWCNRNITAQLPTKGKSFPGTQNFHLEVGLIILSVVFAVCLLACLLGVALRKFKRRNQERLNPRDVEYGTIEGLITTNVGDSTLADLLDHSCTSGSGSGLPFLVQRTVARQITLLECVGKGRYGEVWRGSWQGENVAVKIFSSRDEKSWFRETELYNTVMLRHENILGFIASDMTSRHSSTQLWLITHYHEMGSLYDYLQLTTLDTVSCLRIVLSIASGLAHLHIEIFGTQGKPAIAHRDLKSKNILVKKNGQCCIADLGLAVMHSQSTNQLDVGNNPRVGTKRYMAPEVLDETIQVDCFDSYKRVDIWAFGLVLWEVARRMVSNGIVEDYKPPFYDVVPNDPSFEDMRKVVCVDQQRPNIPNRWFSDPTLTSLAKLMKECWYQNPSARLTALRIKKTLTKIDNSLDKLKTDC

[9] = read-out: Olaparib / %Ctrl @ 10000nM
[10] = read-out: Talazoparib (BMN 673) / %Ctrl @ 10000nM
[11] = read-out: Rucaparib / %Ctrl @ 10000nM, binding competition, % of control
[12] = read-out: Niraparib (MK-4827) / %Ctrl @ 10000nM

Sequence of CSF1R-autoinhibited (P07333 whole entry): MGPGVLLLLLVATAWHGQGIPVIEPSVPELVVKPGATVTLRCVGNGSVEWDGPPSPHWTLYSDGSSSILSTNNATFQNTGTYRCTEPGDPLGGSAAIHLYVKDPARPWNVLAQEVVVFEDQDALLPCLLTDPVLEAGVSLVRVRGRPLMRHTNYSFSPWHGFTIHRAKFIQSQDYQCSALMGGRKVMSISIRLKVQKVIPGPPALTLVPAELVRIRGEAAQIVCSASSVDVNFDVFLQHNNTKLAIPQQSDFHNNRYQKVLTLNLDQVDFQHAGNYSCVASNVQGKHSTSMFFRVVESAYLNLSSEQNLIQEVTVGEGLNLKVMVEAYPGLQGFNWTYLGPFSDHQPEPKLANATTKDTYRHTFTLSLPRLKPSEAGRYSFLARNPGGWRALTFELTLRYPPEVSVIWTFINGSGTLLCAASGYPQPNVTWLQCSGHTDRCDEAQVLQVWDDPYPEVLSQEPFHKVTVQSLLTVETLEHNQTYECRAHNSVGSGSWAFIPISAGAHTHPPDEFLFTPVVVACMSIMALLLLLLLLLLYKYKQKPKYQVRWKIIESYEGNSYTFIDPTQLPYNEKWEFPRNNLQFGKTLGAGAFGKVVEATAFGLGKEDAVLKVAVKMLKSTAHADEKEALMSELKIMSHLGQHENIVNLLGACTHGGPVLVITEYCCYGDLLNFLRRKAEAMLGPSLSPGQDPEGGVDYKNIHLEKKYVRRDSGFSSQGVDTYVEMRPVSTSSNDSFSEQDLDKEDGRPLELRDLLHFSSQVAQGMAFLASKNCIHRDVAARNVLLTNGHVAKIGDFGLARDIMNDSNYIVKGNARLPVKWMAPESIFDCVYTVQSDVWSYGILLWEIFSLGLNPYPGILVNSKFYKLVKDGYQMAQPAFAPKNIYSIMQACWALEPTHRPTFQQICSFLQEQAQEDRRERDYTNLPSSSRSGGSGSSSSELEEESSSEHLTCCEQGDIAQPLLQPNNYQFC
T4 sequence (Q16539 whole entry): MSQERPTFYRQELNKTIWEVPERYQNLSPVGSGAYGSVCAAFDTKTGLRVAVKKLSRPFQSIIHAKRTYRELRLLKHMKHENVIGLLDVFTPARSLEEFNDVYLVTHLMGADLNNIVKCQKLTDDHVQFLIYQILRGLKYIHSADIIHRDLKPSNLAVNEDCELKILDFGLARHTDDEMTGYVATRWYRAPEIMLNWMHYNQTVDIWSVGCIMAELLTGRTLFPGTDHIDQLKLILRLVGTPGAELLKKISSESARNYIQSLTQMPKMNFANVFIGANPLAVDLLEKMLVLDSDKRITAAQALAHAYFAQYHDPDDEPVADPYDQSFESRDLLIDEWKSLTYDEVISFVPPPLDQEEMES
Sequence of SRMS (Q9H3Y6 whole entry): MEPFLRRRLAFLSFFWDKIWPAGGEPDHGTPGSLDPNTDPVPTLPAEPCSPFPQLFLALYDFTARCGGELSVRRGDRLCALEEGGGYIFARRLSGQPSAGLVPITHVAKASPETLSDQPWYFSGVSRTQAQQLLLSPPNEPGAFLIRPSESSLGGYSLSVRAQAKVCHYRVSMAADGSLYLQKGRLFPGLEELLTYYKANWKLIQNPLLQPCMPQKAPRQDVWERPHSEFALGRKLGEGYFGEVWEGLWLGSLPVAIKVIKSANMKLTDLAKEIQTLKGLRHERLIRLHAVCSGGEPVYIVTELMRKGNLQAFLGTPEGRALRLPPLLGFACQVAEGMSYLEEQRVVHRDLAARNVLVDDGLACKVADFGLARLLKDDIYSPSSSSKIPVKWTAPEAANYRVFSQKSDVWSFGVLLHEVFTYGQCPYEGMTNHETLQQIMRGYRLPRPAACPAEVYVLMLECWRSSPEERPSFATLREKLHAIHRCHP
T2 sequence (Q16584 whole entry): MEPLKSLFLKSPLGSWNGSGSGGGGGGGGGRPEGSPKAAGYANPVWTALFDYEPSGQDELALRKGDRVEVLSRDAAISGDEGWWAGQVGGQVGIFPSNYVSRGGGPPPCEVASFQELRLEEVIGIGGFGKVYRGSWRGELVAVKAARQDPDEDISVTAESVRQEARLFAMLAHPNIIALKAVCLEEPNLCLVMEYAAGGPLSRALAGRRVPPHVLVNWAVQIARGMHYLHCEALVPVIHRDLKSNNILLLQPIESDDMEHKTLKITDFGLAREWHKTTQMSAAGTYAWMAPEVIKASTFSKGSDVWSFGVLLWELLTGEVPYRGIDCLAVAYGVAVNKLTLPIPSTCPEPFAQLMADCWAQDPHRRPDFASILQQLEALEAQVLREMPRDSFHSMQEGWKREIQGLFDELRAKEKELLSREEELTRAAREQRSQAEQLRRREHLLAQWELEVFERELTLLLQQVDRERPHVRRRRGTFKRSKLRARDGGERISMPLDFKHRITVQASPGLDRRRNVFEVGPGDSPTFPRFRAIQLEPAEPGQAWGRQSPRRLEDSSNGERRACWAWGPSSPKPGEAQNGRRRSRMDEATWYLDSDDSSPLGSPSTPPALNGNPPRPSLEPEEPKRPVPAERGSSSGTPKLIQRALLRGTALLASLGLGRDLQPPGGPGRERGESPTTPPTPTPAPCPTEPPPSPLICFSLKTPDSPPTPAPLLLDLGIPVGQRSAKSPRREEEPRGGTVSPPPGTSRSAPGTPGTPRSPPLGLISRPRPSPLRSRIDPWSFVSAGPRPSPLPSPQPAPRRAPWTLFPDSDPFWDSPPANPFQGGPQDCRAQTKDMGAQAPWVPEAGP

percent of control binding at 10 µM [1, 9]: 92%
percent of control binding at 10 µM [2, 9]: 97%
percent of control binding at 10 µM [3, 9]: 100%
percent of control binding at 10 µM [4, 9]: 84%
percent of control binding at 10 µM [5, 9]: 100%
percent of control binding at 10 µM [6, 9]: 97%
percent of control binding at 10 µM [7, 9]: 95%
percent of control binding at 10 µM [8, 9]: 96%
Structure (SMILES): O=C(c1cc(Cc2n[nH]c(=O)c3ccccc23)ccc1F)N1CCN(C(=O)C2CC2)CC1 [Olaparib]

percent of control binding at 10 µM [1, 10]: 100%
percent of control binding at 10 µM [2, 10]: 94%
percent of control binding at 10 µM [3, 10]: 70%
percent of control binding at 10 µM [4, 10]: 100%
percent of control binding at 10 µM [5, 10]: 83%
percent of control binding at 10 µM [6, 10]: 100%
percent of control binding at 10 µM [7, 10]: 100%
percent of control binding at 10 µM [8, 10]: 95%
Structure (SMILES): Cn1ncnc1[C@H]1c2n[nH]c(=O)c3cc(F)cc(c23)N[C@@H]1c1ccc(F)cc1 [Talazoparib]

percent of control binding at 10 µM [1, 11]: 79%
percent of control binding at 10 µM [2, 11]: 79%
percent of control binding at 10 µM [3, 11]: 92%
Rucaparib / %Ctrl @ 10000nM ([4]; binding competition, % of control): 26%
percent of control binding at 10 µM [5, 11]: 90%
percent of control binding at 10 µM [6, 11]: 85%
percent of control binding at 10 µM [7, 11]: 99%
percent of control binding at 10 µM [8, 11]: 92%
Structure (SMILES): CNCc1ccc(-c2[nH]c3cc(F)cc4c3c2CCNC4=O)cc1 [Rucaparib]

Structure (SMILES): NC(=O)c1cccc2cn(-c3ccc([C@@H]4CCCNC4)cc3)nc12 [Niraparib]
percent of control binding at 10 µM [1, 12]: 100%
percent of control binding at 10 µM [2, 12]: 83%
percent of control binding at 10 µM [3, 12]: 84%
percent of control binding at 10 µM [4, 12]: 42%
percent of control binding at 10 µM [5, 12]: 95%
percent of control binding at 10 µM [6, 12]: 87%
percent of control binding at 10 µM [7, 12]: 81%
percent of control binding at 10 µM [8, 12]: 83%
